Assay results: patent US12655150B2 (Cedilla Therapeutics, Inc., priority 2021, dated 2026)

Test system: NCI-H226
Test: 72H TEAD Proliferation Assay (Cell Titer Glo 2.0)
Type: cell-based
Details: CTG 2.0, cell line not given (NCI-H226 responsive, NCI-H28 non-responsive)
Procedure, shortened: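 Growth read-out is ATP luminescence (CellTiter-Glo 2.0) after 72 h compound exposure, corrected for no-CTG background and day-0 values, with GI50 from nonlinear regression. Sensitive line NCI-H226 (NF2-deficient); non-responsive NCI-H28 (NF2 wild type) distinguishes TEAD-driven from nonspecific growth inhibition.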

Row | SMILES | GI50 (Homo sapiens, NCI-H226, 72 h) [µM] | GI50 [µM]
1 | CC(C)(C)C1CCN(c2nc3cc(C(=O)O)ccc3n3cccc23)CC1 [I-37, 4-(4-(tert-Butyl)piperidin-1-yl)pyrrolo[1,2-a]quinoxaline-7-carboxylic acid] | > 10 | –
2 | C=CC(=O)Nc1ncc2c(ccn2-c2ccc(C(C)(C)C)cc2)n1 [I-100, N-(5-(4-(tert-butyl)phenyl)-5H-pyrrolo[3,2-d]pyrimidin-2-yl)acrylamide] | 5 to 10 | –
3 | C=CC(=O)Nc1nc(-c2ccc(C(C)(C)C)cc2)nc2cc(C(=O)O)ccc12 [I-104, 4-Acrylamido-2-(4-(tert-butyl)phenyl)quinazoline-7-carboxylic acid] | > 10 | –
4 | CC(C)(C)c1ccc(-c2nc3cc(S(C)(=N)=O)ccc3n3cccc23)cc1 (single isomer, unassigned) [I-208, (4-(4-(tert-Butyl)phenyl)pyrrolo[1,2-a]quinoxalin-7-yl)(imino)(methyl)-16-sulfanone] | – | 1 to 5
5 | CC(C)(C)c1ccc(-c2cncc3cc(C(=O)O)ccc23)cc1 [I-95, 4-(4-(tert-Butyl)phenyl)isoquinoline-7-carboxylic acid] | > 10 | –
6 | CC(C)(C)c1ccc(-c2nc3cc(C#N)ccc3n3ccnc23)cc1 [I-75, 4-(4-(tert-Butyl)phenyl)imidazo[1,2-a]quinoxaline-7-carbonitrile] | > 10 | –
7 | O=C(O)c1ccc2c(c1)nc(N1CCOCC1)c1cccn12 [I-7, 4-Morpholinopyrrolo[1,2-a]quinoxaline-7-carboxylic acid] | > 10 | –
8 | Cc1ccc(-c2nc3cc(C(=O)O)ccc3n3ccnc23)cc1 [I-66, 4-(p-Tolyl)imidazo[1,2-a]quinoxaline-7-carboxylic acid] | 5 to 10 | –
9 | C=CC(=O)Nc1c(C)nc2c(-c3ccc(C(C)(C)C)cc3)nccn12 [I-257, N-(8-(4-(tert-butyl)phenyl)-2-methylimidazo[1,2-a]pyrazin-3-yl)acrylamide] | 5 to 10 | –
10 | Cc1cc(-c2ccc(C(F)(F)F)cc2)nc2cc(-c3nnn[nH]3)ccc12 [I-254, 4-Methyl-7-(1H-tetrazol-5-yl)-2-(4-(trifluoromethyl)phenyl)quinoline] | 5 to 10 | –
11 | CC(C)(C)c1ccc(-c2nc3cc(C(=O)O)ccc3n3cccc23)c(F)c1 [I-49, 4-(4-(tert-Butyl)-2-fluorophenyl)pyrrolo[1,2-a]quinoxaline-7-carboxylic acid] | > 10 | –
12 | COc1c(C)c(-c2ccc(C(F)(F)F)cc2)nc2cc(C(=O)N[C@H](C)CO)ccc12 [I-431, (R)—N-(1-hydroxypropan-2-yl)-4-methoxy-3-methyl-2-(4-(trifluoromethyl)phenyl)quinoline-7-carboxamide] | 5 to 10 | –
13 | O=C(O)c1ccc2c(c1)nc(-c1ccc(C(F)(F)F)cc1C(F)(F)F)c1cccn12 [I-199, 4-(2,4-bis(trifluoromethyl)phenyl)pyrrolo[1,2-a]quinoxaline-7-carboxylic acid] | 1 to 5 | –
14 | O=C(O)c1ccc2c(c1)nc(C1CCCCC1)c1nccn12 [I-68, 4-Cyclohexylimidazo[1,2-a]quinoxaline-7-carboxylic acid] | > 10 | –
15 | CC(=O)c1cc(-c2ccc(C(F)(F)F)cc2)nc2cc(C(=O)O)ccc12 [I-396, 4-acetyl-2-(4-(trifluoromethyl)phenyl)quinoline-7-carboxylic acid] | 1 to 5 | –
16 | CC(C)(C)c1ccc(-c2nc3cc(NC(=O)CN)ccc3n3cccc23)cc1 [I-206, 2-Amino-N-(4-(4-(tert-butyl)phenyl)pyrrolo[1,2-a]quinoxalin-7-yl)acetamide] | 1 to 5 | –
17 | C=CC(=O)Nc1ccc2ccc(-c3ccc(C(C)(C)C)cc3)nc2c1 [I-106, N-(2-(4-(tert-butyl)phenyl)quinolin-7-yl)acrylamide] | 1 to 5 | –
18 | O=C(O)c1ccc2c(c1)nc(C1CC1)c1nccn12 [I-70, 4-Cyclopropylimidazo[1,2-a]quinoxaline-7-carboxylic acid] | > 10 | –
19 | C=CC(=O)Nc1cn2ccnc2c(-c2ccc(C(C)(C)C)cc2)n1 [I-146, N-(8-(4-(tert-Butyl)phenyl)imidazo[1,2-a]pyrazin-6-yl)acrylamide] | 1 to 5 | –
20 | CC(F)(F)C1CCN(c2nc3cc(C(=O)O)ccc3n3cccc23)CC1 [I-14, 4-(4-(1,1-Difluoroethyl)piperidin-1-yl)pyrrolo[1,2-a]quinoxaline-7-carboxylic acid] | > 10 | –
21 | CC(C)(C)c1ccc(-c2nc(/C=C/C(=O)O)cn3ccnc23)cc1 [I-152, (E)-3-(8-(4-(tert-butyl)phenyl)imidazo[1,2-a]pyrazin-6-yl)acrylic acid] | 1 to 5 | –
22 | COc1cc(-c2ccc(C(F)(F)F)cc2)nc2cc(C(=O)NCC(O)C(F)(F)F)ccc12 (centres unmarked) [I-382, 4-methoxy-N-(3,3,3-trifluoro-2-hydroxypropyl)-2-(4-(trifluoromethyl)phenyl)quinoline-7-carboxamide] | 1 to 5 | –
23 | CC(C)(C)c1ccc(-c2cnc3ccc(C(N)=O)cc3n2)cc1 [I-158, 3-(4-(tert-Butyl)phenyl)quinoxaline-6-carboxamide] | > 10 | –
24 | CC(C)(C)c1ccc(-c2nc(CCC(=O)O)cn3ccnc23)cc1 [I-153, 3-(8-(4-(tert-Butyl)phenyl)imidazo[1,2-a]pyrazin-6-yl)propanoic acid] | > 10 | –
25 | Cc1cc(C(F)(F)F)ccc1-c1nc2cc(C(=O)O)ccc2n2cccc12 [I-52, 4-(2-Methyl-4-(trifluoromethyl)phenyl)pyrrolo[1,2-a]quinoxaline-7-carboxylic acid] | 1 to 5 | –
26 | C=CC(=O)NCc1nc(-c2ccc(C(F)(F)F)cc2)n2cccnc12 [I-438, N-((6-(4-(trifluoromethyl)phenyl)imidazo[1,5-a]pyrimidin-8-yl)methyl)acrylamide] | 1 to 5 | –

The next lines start with the values.

Row | GI50 (Homo sapiens, NCI-H226, 72 h) [µM] | GI50 [µM] | SMILES
27 | ≤ 1 | – | C=CC(=O)NCc1nc(-c2ccc(C(F)(F)F)cc2)c2c(ccn2C)n1 [I-451, N-((5-methyl-4-(4-(trifluoromethyl)phenyl)-5H-pyrrolo[3,2-d]pyrimidin-2-yl)methyl)acrylamide]
28 | ≤ 1 | – | C=CC(=O)NCc1nc(-c2ccc(C(F)(F)F)cc2F)c2ncccc2n1 [I-306, N-((4-(2-fluoro-4-(trifluoromethyl)phenyl)pyrido[3,2-d]pyrimidin-2-yl)methyl)acrylamide]
29 | ≤ 1 | – | C=CC(=O)NCc1cn2ccnc2c(Oc2cccc(C(C)(C)C)c2)n1 [I-441, N-((8-(3-(tert-butyl)phenoxy)imidazo[1,2-a]pyrazin-6-yl)methyl)acrylamide]
30 | 1 to 5 | – | O=C(O)c1ccc2c(c1)nc(N1CCC3(CC1)CC3)c1ncnn12 [I-285, 4-(6-azaspiro[2.5]octan-6-yl)-[1,2,4]triazolo[1,5-a]quinoxaline-7-carboxylic acid]
31 | ≤ 1 | – | C=C(F)C(=O)NCc1nc(-c2ccc(C(F)(F)F)cc2)c2cccnc2n1 [I-307, 2-fluoro-N-((4-(4-(trifluoromethyl)phenyl)pyrido[2,3-d]pyrimidin-2-yl)methyl)acrylamide]
32 | 1 to 5 | – | C[C@@H](CO)NC(=O)c1ccc2c(OCC3CC3)cc(-c3ccc(C(F)(F)F)cc3)nc2c1 [I-374, (S)-4-(cyclopropylmethoxy)-N-(1-hydroxypropan-2-yl)-2-(4-(trifluoromethyl)phenyl)quinoline-7-carboxamide]
33 | ≤ 1 | – | C=CC(=O)NCc1cn2ccnc2c(-c2ccc(OC(F)(F)F)cc2)n1 [I-173, N-((8-(4-(trifluoromethoxy)phenyl)imidazo[1,2-a]pyrazin-6-yl)methyl)acrylamide]
34 | ≤ 1 | – | Cc1cc(-c2ccc(C(F)(F)F)cc2)nc2cc(C(=O)N[C@H](C)CO)ccc12 [I-261, (R)—N-(1-hydroxypropan-2-yl)-4-methyl-2-(4-(trifluoromethyl)phenyl)quinoline-7-carboxamide]
35 | ≤ 1 | – | Cc1cc(-c2ccc(C(F)(F)F)cc2)nc2cc(C(=O)N[C@@H](C)c3cccc(C(=O)O)c3)ccc12 [I-267, (S)-3-(1-(4-methyl-2-(4-(trifluoromethyl)phenyl)quinoline-7-carboxamido)ethyl)benzoic acid]
36 | 1 to 5 | – | CC(O)C(=O)Nc1ccc2c(c1)nc(-c1ccc(C(C)(C)C)cc1)c1cccn12 (centres unmarked) [I-204, N-(4-(4-(tert-Butyl)phenyl)pyrrolo[1,2-a]quinoxalin-7-yl)-2-hydroxypropanamide]
37 | 1 to 5 | – | C=CC(=O)Nc1ccc2c(C(F)(F)F)cc(-c3ccc(C(C)(C)C)cc3)nc2c1 [I-112, N-(2-(4-(tert-Butyl)phenyl)-4-(trifluoromethyl)quinolin-7-yl)acrylamide]
38 | 1 to 5 | – | CC(C)(C)c1ccc(-c2nc3cc(C(=O)O)ccc3n3ccnc23)c(F)c1 [I-59, 4-(4-(tert-Butyl)-2-fluorophenyl)imidazo[1,2-a]quinoxaline-7-carboxylic acid]
39 | ≤ 1 | – | C=CC(=O)NCc1cc2ccc(F)cc2c(-c2ccc(C(F)(F)F)cc2)n1 [I-295, N-((7-fluoro-1-(4-(trifluoromethyl)phenyl)isoquinolin-3-yl)methyl)acrylamide]
40 | ≤ 1 | – | C=CC(=O)N1CC(c2cn3ccnc3c(-c3ccc(C(F)(F)F)cc3)n2)C1 [I-245, 1-(3-(8-(4-(Trifluoromethyl)phenyl)imidazo[1,2-a]pyrazin-6-yl)azetidin-1-yl)prop-2-en-1-one]
41 | ≤ 1 | – | O=C(O)c1ccc2c(c1)nc(-c1ccc(SC(F)(F)F)cc1)c1cccn12 [I-194, 4-(4-((trifluoromethyl)thio)phenyl)pyrrolo[1,2-a]quinoxaline-7-carboxylic acid]
42 | ≤ 1 | – | C=CC(=O)Nc1cn2cccc2c(-c2ccc(C(F)(F)F)cc2)n1 [I-96, N-(1-(4-(trifluoromethyl)phenyl)pyrrolo[1,2-a]pyrazin-3-yl)acrylamide]
43 | ≤ 1 | – | C=CC(=O)NCc1nc(-c2ccc(C(C)(C)C)cc2)c2ccc(F)cc2n1 [I-446, N-((4-(4-(tert-butyl)phenyl)-7-fluoroquinazolin-2-yl)methyl)acrylamide]
44 | ≤ 1 | – | C=CC(=O)NC1CCN(c2cn3ccnc3c(-c3ccc(C(F)(F)F)cc3)n2)C1 (centres unmarked) [I-227, N-(1-(8-(4-(trifluoromethyl)phenyl)imidazo[1,2-a]pyrazin-6-yl)pyrrolidin-3-yl)acrylamide]
